Measurements from patent US20230416330A1, “Optimized GIP Peptide Analogues” (Antag Therapeutics ApS, priority 2019, published 2023).
Starred links: 1 amine or outer side, 2 acyl side, 3 side chain; linkers in the order of their positions; H or OH if unused. Non-standard residues stand in square brackets, D forms with d. Residues, ends and D or L forms follow the SMILES beside them. Groups on a side chain read outwards from the residue. *: point of attachment. C18 diacid = O=C(O)CCCCCCCCCCCCCCCCC(=O)*; C16 diacid = O=C(O)CCCCCCCCCCCCCCC(=O)*; γGlu = O=C(O)[C@H](CCC(=O)[*:2])N[*:1]; Nle = CCCC[C@H](N)C(=O)O; AEEA = NCCOCCOCC(=O)O; Aib = CC(C)(N)C(=O)O

How the values were obtained:
[1] = molecular target: T1, human GIP receptor (Homo sapiens, UniProt P48546); experiment: cAMP assay Alternative 1 (CisBio assay), GIPR antagonism; type: cell-based; details: for cAMP antagonism % inhib: Table 2B, % inhibition of Emax
T1 construct: host or cells: HEK-293 cells, transient transfection (Lipofectamine 2000), cDNA in pCMV-Script vector
T1 sequence (P48546 22-466): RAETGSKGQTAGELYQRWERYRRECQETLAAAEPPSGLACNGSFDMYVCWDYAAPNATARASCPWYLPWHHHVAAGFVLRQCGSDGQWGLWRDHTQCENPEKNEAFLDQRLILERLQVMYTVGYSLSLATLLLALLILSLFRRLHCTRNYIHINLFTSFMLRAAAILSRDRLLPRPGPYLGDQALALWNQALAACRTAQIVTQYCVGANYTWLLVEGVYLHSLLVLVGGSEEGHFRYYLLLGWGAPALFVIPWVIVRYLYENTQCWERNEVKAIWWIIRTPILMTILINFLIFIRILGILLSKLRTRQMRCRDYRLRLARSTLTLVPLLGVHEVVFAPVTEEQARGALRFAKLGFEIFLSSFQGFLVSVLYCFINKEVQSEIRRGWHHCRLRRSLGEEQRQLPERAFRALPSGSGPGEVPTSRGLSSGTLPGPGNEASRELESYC
In short: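 HEK293 cells transiently transfected with hGIPR, compounds diluted in HBSS/HEPES/pluronic/casein with 500 uM IBMX; decrease in intracellular cAMP read by HTRF (665/620 nm) and converted via cAMP standard curve. pIC50 from four-parameter fit; agonism tested separately after 30 min at 37° C.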

[2] = Physical stability: fibril formation in Thioflavin T (ThT) assay with agitation; type: physicochemical; details: 25° C., agitation
In short: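 Peptides at 1, 5, 7.5 or 15 mg/ml in 50 mM sodium phosphate pH 7.4 or in water adjusted to pH 7.4 with NaOH, filtered 0.22 μm, with ThT added. Wells held a 3 mm silica bead under 300 rpm orbital agitation at 25° C. Emission at 486 nm tracked continuously; lag time = 10% of transition above baseline.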

[3] = Solubility by visual inspection of peptide solutions; type: physicochemical
In short: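 Peptides dissolved at 1, 5, 7.5 or 15 mg/ml in 50 mM sodium phosphate pH 7.4 or water adjusted to pH 7.4 with NaOH, with gentle mixing. Immediate solubility judged visually as a clear, colorless solution.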

SMILES	cAMP antagonism % inhib [1]	Avr lag time (h) ([2]; 1 mg/ml, TFA, Phosphate (7.4))	Visual appearance ([3]; 1 mg/ml, TFA, Phosphate (7.4))	Avr lag time (h) ([2]; 5 mg/ml, Na, MilliQ (8))	Avr lag time (h) ([2]; 7.5 mg/ml, Na, MilliQ (8))	Avr lag time (h) ([2]; 15 mg/ml, Na, MilliQ (8))	Visual appearance ([3]; 5 mg/ml, Na, MilliQ (8))	Visual appearance ([3]; 7.5 mg/ml, Na, MilliQ (8))	Visual appearance ([3]; 15 mg/ml, Na, MilliQ (8))	IC50 [1]
CC[C@H](C)[C@H](NC(=O)[C@H](CO)NC(=O)[C@H](Cc1ccc(O)cc1)NC(=O)[C@H](CCC(=O)O)NC(=O)[C@H](CO)NC(=O)[C@@H](NC(=O)[C@H](Cc1ccccc1)NC(=O)[C@@H](NC(=O)CNC(=O)[C@@H](N)CCC(=O)O)[C@@H](C)O)[C@@H](C)CC)C(=O)N[C@@H](C)C(=O)N[C@@H](CC(C)C)C(=O)N[C@@H](CCC(=O)O)C(=O)N[C@@H](CCCCN)C(=O)N[C@H](C(=O)N[C@@H](CCCCNC(=O)COCCOCCNC(=O)COCCOCCNC(=O)CC[C@H](NC(=O)CCCCCCCCCCCCCCCCC(=O)O)C(=O)O)C(=O)N[C@@H](CCC(N)=O)C(=O)N[C@@H](CCC(N)=O)C(=O)N[C@@H](CCC(=O)O)C(=O)N[C@@H](Cc1ccccc1)C(=O)N[C@H](C(=O)N[C@@H](CCC(=O)O)C(=O)N[C@@H](Cc1c[nH]c2ccccc12)C(=O)N[C@@H](CC(C)C)C(=O)N[C@@H](CC(C)C)C(=O)N[C@@H](C)C(=O)N[C@@H](CCC(N)=O)C(=O)N[C@@H](CCCCN)C(=O)N1CCC[C@H]1C(=O)N[C@@H](CO)C(=O)N[C@@H](CO)C(=O)NCC(=O)N[C@@H](C)C(=O)N1CCC[C@H]1C(=O)N1CCC[C@H]1C(=O)N1CCC[C@H]1C(=O)N[C@@H](CO)C(=O)O)C(C)C)[C@@H](C)CC [AT693] (H-EGTFISEYSIALEKIK([AEEA-AEEA-γGlu-C18 diacid])QQEFVEWLLAQKPSSGAPPPS-OH; N-terminus assumed)	96%	fnd (Fnd = fibrils not detected within experiment time (96 hours) with agitation.)	Clear							
CCCC[C@H](NC(=O)C(C)(C)NC(=O)[C@@H](NC(=O)[C@H](CO)NC(=O)[C@H](Cc1ccc(O)cc1)NC(=O)[C@H](CCC(=O)O)NC(=O)[C@H](CO)NC(=O)[C@@H](NC(=O)[C@H](Cc1ccccc1)NC(=O)[C@@H](NC(=O)CNC(=O)[C@@H](N)CCC(=O)O)[C@@H](C)O)[C@@H](C)CC)[C@@H](C)CC)C(=O)N[C@@H](CCC(=O)O)C(=O)N[C@@H](CCCCN)C(=O)N[C@H](C(=O)N[C@@H](CCCCNC(=O)COCCOCCNC(=O)COCCOCCNC(=O)CC[C@H](NC(=O)CCCCCCCCCCCCCCCCC(=O)O)C(=O)O)C(=O)N[C@@H](CCC(N)=O)C(=O)N[C@@H](CCC(N)=O)C(=O)N[C@@H](CCC(=O)O)C(=O)N[C@@H](Cc1ccccc1)C(=O)N[C@H](C(=O)N[C@@H](CCC(=O)O)C(=O)N[C@@H](Cc1c[nH]c2ccccc12)C(=O)N[C@@H](CC(C)C)C(=O)N[C@@H](CC(C)C)C(=O)N[C@@H](C)C(=O)N[C@@H](CCC(N)=O)C(=O)N[C@@H](CCCCN)C(=O)N1CCC[C@H]1C(=O)N[C@@H](CO)C(=O)N[C@@H](CO)C(=O)NCC(=O)N[C@@H](C)C(=O)N1CCC[C@H]1C(=O)N1CCC[C@H]1C(=O)N1CCC[C@H]1C(=O)N[C@@H](CO)C(=O)O)C(C)C)[C@@H](C)CC [AT696] (H-EGTFISEYSI[Aib][Nle]EKIK([AEEA-AEEA-γGlu-C18 diacid])QQEFVEWLLAQKPSSGAPPPS-OH; N-terminus assumed)	97%	fnd (Fnd = fibrils not detected within experiment time (96 hours) with agitation.)	Clear	fnd (Fnd = fibrils not detected within experiment time (96 hours) with agitation.)	fnd (Fnd = fibrils not detected within experiment time (96 hours) with agitation.)	fnd (Fnd = fibrils not detected within experiment time (96 hours) with agitation.)	Clear	Clear	Clear	
CCCC[C@H](NC(=O)[C@H](C)NC(=O)[C@@H](NC(=O)[C@H](CO)NC(=O)[C@H](Cc1ccc(O)cc1)NC(=O)[C@H](CCC(=O)O)NC(=O)[C@H](CO)NC(=O)[C@@H](NC(=O)[C@H](Cc1ccccc1)NC(=O)[C@@H](NC(=O)CNC(=O)[C@@H](N)CCC(=O)O)[C@@H](C)O)[C@@H](C)CC)[C@@H](C)CC)C(=O)N[C@@H](CCC(=O)O)C(=O)N[C@@H](CCCCN)C(=O)N[C@H](C(=O)N[C@@H](CCCCNC(=O)COCCOCCNC(=O)COCCOCCNC(=O)CC[C@H](NC(=O)CCCCCCCCCCCCCCCCC(=O)O)C(=O)O)C(=O)N[C@@H](CCC(N)=O)C(=O)N[C@@H](CCC(N)=O)C(=O)N[C@@H](CCC(=O)O)C(=O)N[C@@H](Cc1ccccc1)C(=O)N[C@H](C(=O)N[C@@H](CCC(=O)O)C(=O)N[C@@H](Cc1c[nH]c2ccccc12)C(=O)N[C@@H](CC(C)C)C(=O)N[C@@H](CC(C)C)C(=O)N[C@@H](C)C(=O)N[C@@H](CCC(N)=O)C(=O)N[C@@H](CCCCN)C(=O)N1CCC[C@H]1C(=O)N[C@@H](CO)C(=O)N[C@@H](CO)C(=O)NCC(=O)N[C@@H](C)C(=O)N1CCC[C@H]1C(=O)N1CCC[C@H]1C(=O)N1CCC[C@H]1C(=O)N[C@@H](CO)C(=O)O)C(C)C)[C@@H](C)CC [AT694] (H-EGTFISEYSIA[Nle]EKIK([AEEA-AEEA-γGlu-C18 diacid])QQEFVEWLLAQKPSSGAPPPS-OH; N-terminus assumed)	88%	fnd (Fnd = fibrils not detected within experiment time (96 hours) with agitation.)	Clear							
CC[C@H](C)[C@H](NC(=O)[C@H](CCCCN)NC(=O)[C@H](CC(=O)O)NC(=O)[C@H](CCSC)NC(=O)C(C)(C)NC(=O)[C@@H](NC(=O)[C@H](CO)NC(=O)[C@H](Cc1ccc(O)cc1)NC(=O)[C@H](CC(=O)O)NC(=O)[C@H](CO)NC(=O)[C@@H](NC(=O)[C@H](Cc1ccccc1)NC(=O)[C@@H](NC(=O)CNC(=O)[C@@H](N)CCC(=O)O)[C@@H](C)O)[C@@H](C)CC)[C@@H](C)CC)C(=O)N[C@@H](CCCCNC(=O)CCCCCCCCCCCCCCC(=O)O)C(=O)N[C@@H](CCC(N)=O)C(=O)N[C@@H](CCC(N)=O)C(=O)N[C@@H](CC(=O)O)C(=O)N[C@@H](Cc1ccccc1)C(=O)N[C@H](C(=O)N[C@@H](CCC(=O)O)C(=O)N[C@@H](Cc1c[nH]c2ccccc12)C(=O)N[C@@H](CC(C)C)C(=O)N[C@@H](CC(C)C)C(=O)N[C@@H](C)C(=O)N[C@@H](CCC(N)=O)C(=O)N[C@@H](CCCCN)C(=O)N1CCC[C@H]1C(=O)N[C@@H](CO)C(=O)N[C@@H](CO)C(=O)NCC(=O)N[C@@H](C)C(=O)N1CCC[C@H]1C(=O)N1CCC[C@H]1C(=O)N1CCC[C@H]1C(=O)N[C@@H](CO)C(=O)O)C(C)C [AT665] (H-EGTFISDYSI[Aib]MDKIK(C16 diacid)QQDFVEWLLAQKPSSGAPPPS-OH; N-terminus assumed)	88%	fnd (Fnd = fibrils not detected within experiment time (96 hours) with agitation.)	Clear	fnd (Fnd = fibrils not detected within experiment time (96 hours) with agitation.)	fnd (Fnd = fibrils not detected within experiment time (96 hours) with agitation.)	fnd (Fnd = fibrils not detected within experiment time (96 hours) with agitation.)		Clear	Clear	0.15 nM
